Measurements reported in PubChem BioAssay AID328 (DTP/NCI, 2004).
Several values for one entry are separate records, joined by “and”; a condition that tells them apart may be missing. Equal entries are not always repeated. Inconclusive results and toxic doses are left out.

System: BDF1 mice, P388 leukemia ip, median survival T/C
Assay: NCI In Vivo Anticancer Drug Screen. Data for tumor model P388 Leukemia (intraperitoneal) in B6D2F1 (BDF1) mice
Conditions: endpoint: median survival time, higher = longer survival
Outline: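 Mice carrying the transplantable tumour receive compound or vehicle. Survival is followed in each arm, and the treated measure is divided by the vehicle measure.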

[1] = dose: 25.0 mg/kg/injection, schedule: Q01DX009 (ip), vehicle: saline with Tween-80
[2] = dose: 50.0 mg/kg/injection, schedule: Q01DX009 (ip), vehicle: saline with Tween-80
[3] = dose: 100.0 mg/kg/injection, schedule: Q01DX009 (ip), vehicle: saline with Tween-80
[4] = dose: 100.0 mg/kg/injection, schedule: Q04DX003 (ip), vehicle: saline with Tween-80
[5] = dose: 200.0 mg/kg/injection, schedule: Q01DX009 (ip), vehicle: saline with Tween-80
[6] = dose: 200.0 mg/kg/injection, schedule: Q04DX003 (ip), vehicle: saline with Tween-80
[7] = dose: 400.0 mg/kg/injection, schedule: Q01DX009 (ip), vehicle: saline with Tween-80
[8] = dose: 400.0 mg/kg/injection, schedule: Q04DX003 (ip), vehicle: saline with Tween-80
[9] = dose: 12.5 mg/kg/injection, schedule: Q04DX003 (ip), vehicle: saline with Tween-80
[10] = dose: 25.0 mg/kg/injection, schedule: Q04DX003 (ip), vehicle: saline with Tween-80
[11] = dose: 50.0 mg/kg/injection, schedule: Q04DX003 (ip), vehicle: saline with Tween-80
[12] = dose: 100.0 mg/kg/injection, schedule: Q01DX009 (ip), vehicle: water
[13] = dose: 200.0 mg/kg/injection, schedule: Q01DX009 (ip), vehicle: water
[14] = dose: 200.0 mg/kg/injection, schedule: Q04DX003 (ip), vehicle: Klucel (hydroxypropylcellulose) (HPC)
[15] = dose: 400.0 mg/kg/injection, schedule: Q04DX003 (ip), vehicle: Klucel (hydroxypropylcellulose) (HPC)

Cc1ccc(C(O)c2c(C)cc(C)cc2C)c(C)c1 (configuration not stated)
T/C (dose: 100.0 mg/kg/injection, schedule: Q01DX001 (ip), vehicle: saline with Tween-80): 100 % of control
T/C (dose: 200.0 mg/kg/injection, schedule: Q01DX001 (ip), vehicle: saline with Tween-80): 100 % of control
T/C (dose: 400.0 mg/kg/injection, schedule: Q01DX001 (ip), vehicle: saline with Tween-80): 100 % of control

CC(C)N(C(C)C)S(=O)(=O)c1ccccc1C(O)(c1ccccc1)c1ccccc1
T/C [1]: 90 % of control
T/C [2]: 86 % of control
T/C [3]: 90 % of control

CNc1nc(N)nc(Nc2ccc(I)cc2)c1N=O
T/C [3]: 90 % of control and 100 % of control
T/C [4]: 95 % of control
T/C [5]: 90 % of control and 91 % of control
T/C [6]: 112 % of control
T/C [7]: 87 % of control
T/C [8]: 91 % of control

CCOC(=O)c1c[nH]c2ccccc2c1=O
T/C (dose: 100.0 mg/kg/injection, schedule: Q04DX002 (ip), vehicle: saline): 107 % of control
T/C (dose: 200.0 mg/kg/injection, schedule: Q04DX002 (ip), vehicle: saline): 111 % of control
T/C (dose: 400.0 mg/kg/injection, schedule: Q04DX002 (ip), vehicle: saline): 102 % of control

CSc1cc(-c2ccc(Cl)cc2)s[s+]1
T/C (dose: 3.12 mg/kg/injection, schedule: Q04DX003 (ip), vehicle: saline with Tween-80): 104 % of control
T/C (dose: 6.25 mg/kg/injection, schedule: Q01DX009 (ip), vehicle: saline with Tween-80): 110 % of control
T/C (dose: 6.25 mg/kg/injection, schedule: Q04DX003 (ip), vehicle: saline with Tween-80): 111 % of control
T/C (dose: 12.5 mg/kg/injection, schedule: Q01DX009 (ip), vehicle: saline with Tween-80): 89 % of control
T/C [9]: 109 % of control
T/C [1]: 100 % of control
T/C [10]: 108 % of control
T/C [2]: 91 % of control
T/C [11]: 94 % of control

COC(CN(C)CC(OC)OC)OC
T/C (dose: 100.0 mg/kg/injection, schedule: Q01DX009 (ip), vehicle: saline): 90 % of control
T/C (dose: 200.0 mg/kg/injection, schedule: Q01DX009 (ip), vehicle: saline): 100 % of control
T/C (dose: 400.0 mg/kg/injection, schedule: Q01DX009 (ip), vehicle: saline): 100 % of control

COC1OCC(N=[N+]=[N-])C2OC12 (configuration not stated)
T/C (dose: 25.0 mg/kg/injection, schedule: Q01DX009 (ip), vehicle: water): 96 % of control
T/C (dose: 50.0 mg/kg/injection, schedule: Q01DX009 (ip), vehicle: water): 102 % of control
T/C [12]: 119 % of control
T/C [13]: 102 % of control

CC(Oc1ccccc1)C(=O)N=c1scc(-c2ccc(Br)cc2)n1-c1cccc2ccccc12 (configuration not stated)
T/C (dose: 12.5 mg/kg/injection, schedule: Q01DX009 (ip), vehicle: gum acacia): 110 % of control
T/C (dose: 50.0 mg/kg/injection, schedule: Q01DX009 (ip), vehicle: gum acacia): 118 % of control

C=CCN(CC=C)CCSC(=S)NCCOC
T/C [2]: 95 % of control
T/C [3]: 100 % of control
T/C [5]: 95 % of control

O=C1CN(CCc2ccccc2)CC(=O)N2C(c3ccccc3)CCCN12 (configuration not stated)
T/C (dose: 50.0 mg/kg/injection, schedule: Q01DX005 (ip), vehicle: saline with Tween-80): 94 % of control
T/C (dose: 100.0 mg/kg/injection, schedule: Q01DX005 (ip), vehicle: saline with Tween-80): 97 % of control
T/C (dose: 200.0 mg/kg/injection, schedule: Q01DX005 (ip), vehicle: saline with Tween-80): 97 % of control

C=[CH][Sn][CH2]CCC
T/C (dose: 12.5 mg/kg/injection, schedule: Q01DX009 (ip), vehicle: Klucel (hydroxypropylcellulose) (HPC)): 100 % of control
T/C (dose: 25.0 mg/kg/injection, schedule: Q01DX009 (ip), vehicle: Klucel (hydroxypropylcellulose) (HPC)): 103 % of control
T/C (dose: 50.0 mg/kg/injection, schedule: Q01DX009 (ip), vehicle: Klucel (hydroxypropylcellulose) (HPC)): 99 % of control

C=C(C)c1ccccc1S(=O)(=O)c1ccccc1C(C)(C)O
T/C [4]: 105 % of control
T/C [6]: 110 % of control
T/C [8]: 114 % of control

CC(O)C(O)C(O)C(O)/C=N/O (configuration not stated)
T/C [14]: 92 % of control
T/C [15]: 88 % of control

CCOc1ccn(CC(=O)c2ccc([N+](=O)[O-])o2)c(=O)n1
T/C [2]: 100 % of control
T/C [3]: 101 % of control

COC(=O)C1C(O)C(C)C(=O)C(C)/C=C\C=C(C)C(=O)Nc2c(C)c(OC(C)=O)c3c(c2O)C(=O)C(C)=C2OCOC(=C23)C(C)=CC(C)(O)C(O)C(C)C1O (configuration not stated)
T/C (dose: 100.0 mg/kg/injection, schedule: Q01DX009 (ip), vehicle: Klucel (hydroxypropylcellulose) (HPC)): 101 % of control
T/C (dose: 200.0 mg/kg/injection, schedule: Q01DX009 (ip), vehicle: Klucel (hydroxypropylcellulose) (HPC)): 101 % of control
T/C (dose: 400.0 mg/kg/injection, schedule: Q01DX009 (ip), vehicle: Klucel (hydroxypropylcellulose) (HPC)): 101 % of control

C/C(=N/O)[c-]1[c-][c-][c-][c-]1.[Fe].[c-]1[c-][c-][cH-][c-]1
T/C [10]: 100 % of control
T/C [11]: 109 % of control
T/C [4]: 109 % of control

CC(C)CN(CC(C)C)C(=O)c1ccc(Cl)c(Cl)c1
T/C [1]: 91 % of control
T/C [2]: 103 % of control
T/C [3]: 107 % of control
T/C [5]: 94 % of control

COc1ccc(N=Cc2ccc3c(c2)OCO3)cc1
T/C [2]: 98 % of control
T/C [3]: 100 % of control
T/C [5]: 105 % of control
T/C [7]: 98 % of control

CCCC(O)C1CCCCC1O (configuration not stated)
T/C [4]: 100 % of control
T/C [6]: 100 % of control
T/C [8]: 100 % of control

O=C(Nc1ccccc1)Oc1ccc(Cl)cc1
T/C (dose: 100.0 mg/kg/injection, schedule: Q04DX003 (ip), vehicle: Klucel (hydroxypropylcellulose) (HPC)): 104 % of control
T/C [14]: 95 % of control
T/C [15]: 109 % of control

CCCCCCOCCN1CCN(CCCN2c3ccccc3Sc3ccc(C(F)(F)F)cc32)CC1
T/C [9]: 121 % of control
T/C [10]: 97 % of control and 112 % of control
T/C [11]: 94 % of control

O=[N+]([O-])c1cc2no[n+]([O-])c2cc1N1CCOCC1
T/C (dose: 30.0 mg/kg/injection, schedule: Q01DX009 (ip), vehicle: saline with Tween-80): 108 % of control

O=C(SCO)c1ccccc1
T/C (dose: 100.0 mg/kg/injection, schedule: Q04DX003 (sc), vehicle: olive oil, sesame oil, peanut oil): 100 % of control
T/C (dose: 200.0 mg/kg/injection, schedule: Q04DX003 (sc), vehicle: olive oil, sesame oil, peanut oil): 110 % of control
T/C (dose: 400.0 mg/kg/injection, schedule: Q04DX003 (sc), vehicle: olive oil, sesame oil, peanut oil): 100 % of control

ClC(Cl)(Cl)CC(Br)c1ccccc1 (configuration not stated)
T/C (dose: 100.0 mg/kg/injection, schedule: Q04DX003 (ip), vehicle: saline sonified): 91 % of control
T/C (dose: 200.0 mg/kg/injection, schedule: Q04DX003 (ip), vehicle: saline sonified): 100 % of control
T/C (dose: 400.0 mg/kg/injection, schedule: Q04DX003 (ip), vehicle: saline sonified): 100 % of control

O=C1OC(O)(c2ccccc2)C(c2ccccc2)=C1c1ccccc1 (configuration not stated)
T/C [2]: 119 % of control
T/C [3]: 110 % of control
T/C [5]: 108 % of control

CCNC(C)(C)C(SS(=O)(=O)O)c1cccs1 (configuration not stated)
T/C [12]: 121 % of control
T/C (dose: 100.0 mg/kg/injection, schedule: Q04DX003 (ip), vehicle: water): 102 % of control
T/C [13]: 121 % of control
T/C (dose: 200.0 mg/kg/injection, schedule: Q04DX003 (ip), vehicle: water): 111 % of control
T/C (dose: 400.0 mg/kg/injection, schedule: Q04DX003 (ip), vehicle: water): 93 % of control

O=C1C=CC(=O)c2c(O)c(CO)c(CO)c(O)c21
T/C (dose: 0.19 mg/kg/injection, schedule: Q01DX009 (ip), vehicle: water): 100 % of control
T/C (dose: 0.39 mg/kg/injection, schedule: Q01DX009 (ip), vehicle: water): 108 % of control
T/C (dose: 0.78 mg/kg/injection, schedule: Q01DX009 (ip), vehicle: water): 115 % of control
T/C (dose: 1.56 mg/kg/injection, schedule: Q01DX009 (ip), vehicle: water): 102 % of control
T/C (dose: 3.12 mg/kg/injection, schedule: Q01DX009 (ip), vehicle: water): 108 % of control

Cc1c(CNc2ccc(C(=O)NC(CC(=O)O)CC(=O)O)cc2)ccc2nc(N)nc(N)c12
T/C (dose: 0.19 mg/kg/injection, schedule: Q01DX009 (ip), vehicle: saline): 165 % of control
T/C (dose: 0.37 mg/kg/injection, schedule: Q01DX009 (ip), vehicle: saline): 215 % of control
T/C (dose: 0.75 mg/kg/injection, schedule: Q01DX009 (ip), vehicle: saline): 100 % of control
T/C (dose: 1.5 mg/kg/injection, schedule: Q01DX009 (ip), vehicle: saline): 95 % of control
T/C (dose: 2.0 mg/kg/injection, schedule: Q01DX009 (ip), vehicle: saline): 110 % of control
